Each block holds one compound with its values, some of them ahead of it.
Experiments:
Type in all cases: cell-based
[1] = test system: pChk1^Ser345 and γH2AX in PBMCs; experiment: Evaluation of optimal 4-nitroquinoline concentration in PBMCs from treated human whole blood, immunofluorescence; conditions: 240 μM 4-nitroquinoline, 2 hours
Protocol: Blood from healthy volunteers was collected by venepuncture into EDTA-coated blood collection tubes. 2 mls of blood per treatment was transferred into 1 well of a 6-well plates already containing 2 mls PBS containing 2% (v/v) FBS and DMSO or 4-nitroquinoline (60, 120, 240, 480 μM final concentration). Following 2 hours incubation at 37° C. the blood mixture was transferred into 15 ml falcon tubes containing 2 mls FICOLL-PAQUE PLUS™ and the PBMCs separated using centrifugation through a FICOLL-PAQUE PLUS™ separation gradient. PBMCs were collected and washed twice using 10 mls PBS and resuspended in 1 ml PBS. PBMCs were counted using a haemocytometer and 1×10^5 PBMCs were centrifuged onto microscope slides using a CYTOSPIN 2™ centrifuge (Shandon) for 5 minutes at 450 rpm. Cells were fixed using 4% (w/v) paraformaldehyde for 20 minutes and permeablised using 0.5% (v/v) Triton-X-100 for 30 minutes. […] These were detected using the appropriate secondary antibodies diluted in 1% (w/v) BSA in PBS: anti-rabbit AlexaFluor 546 (Invitrogen, 1:1000) and anti-mouse AlexaFluor 546 (Invitrogen, 1:1000). […] Mean nuclear fluorescence for at least 50 nuclei was measured using Image) software (National Institutes of Health, USA) and the data analysed using GraphPad Prism software version 6.0.

[2] = test system: pChk1^Ser345 and γH2AX in MCF7 cells; experiment: Evaluation of optimal 4-nitroquinoline concentration in MCF7 cells, immunofluorescence; conditions: 0.1-10 μM 4-nitroquinoline, 2 hours
Protocol: Coverslips were sterilised in methanol and placed in the bottom of a 6-well culture dish. 2×10^5 MCF7 cells were seeded into each well of a 6-well culture dish in culture medium (RPMI-1640 with 10% FBS and 1% penicillin and streptomycin) and allowed to adhere for 24 hours. Medium was replaced by fresh medium containing 4-nitroquinoline (0.1-10 μM) and incubated at 37° C. for 2 hours. Cells were washed in PBS, fixed using 4% (w/v) paraformaldehyde for 20 minutes at room temperature and permeablised using 0.5% (v/v) Triton-X-100 for 30 minutes at room temperature. Permeablised cells were blocked using 10% (v/v) goat serum and 5% (w/v) BSA in PBS for 1 hour, the coverslips removed and subjected to immunofluorescent analysis using primary antibodies diluted in 1% (w/v) BSA in PBS overnight at 4° C.: rabbit anti-pChk1^Ser345 (133D3, Cell Signaling Technology, 1:300) and mouse anti-phospho-Histone H2AX^Ser139 (JBW301, Millipore, 1:1000). These were detected using the appropriate secondary antibodies diluted in 1% (w/v) BSA in PBS for 1 hour at room temperature protected from light: anti-rabbit AlexaFluor 546 (Invitrogen, 1:1000) and anti-mouse AlexaFluor 546 (Invitrogen, 1:1000). […] Mean nuclear fluorescence for at least 50 nuclei was measured using Image) software (National Institutes of Health, USA) and the data analysed using GraphPad Prism software version 6.0.

[3] = test system: ATR-dependent phosphorylation events; experiment: 4-nitroquinoline induction of ATR-dependent phosphorylation events in cell lines and isolated PBMCs
Protocol: PBMCs were purified from fresh whole human blood using FICOLL-PAQUE™ density gradient centrifugation. Cells were counted and seeded at 5×10(5) per well in a round bottom 96 well plate in RPMI medium supplemented with 10% foetal calf serum (FCS) and penicillin/streptomycin/glutamine (PSQ). […] Washed cells were then fixed with 4% paraformaldehyde for 10 min, permeabilised with 0.5% Triton X-100 for 10 min and analysed for Histone H2AX S139 phosphorylation by flow cytometry on the using 1:200 diluted anti-γH2AX primary antibody clone JBW301 (Millipore), 1:500 goat anti-mouse Alexa Fluor488 (Invitrogen) and propidium iodide DNA staining.
Blood from healthy volunteers was collected by venepuncture into EDTA-coated blood collection tubes. […] PBMCs were collected using centrifugation, washed in 1 ml PBS then resuspended in 1 ml PBS before being counted using a haemocytometer. […] These were detected using the appropriate secondary antibodies diluted in 1% (w/v) BSA in PBS for 1 hour at room temperature protected from the light: anti-rabbit AlexaFluor 488 (Invitrogen, 1:1000) and anti-mouse AlexaFluor 546 (Invitrogen, 1:1000). […] Mean nuclear fluorescence for at least 50 nuclei was measured using ImageJ software (National Institutes of Health, USA) and the data analysed using GraphPad Prism software version 6.0. […]

ATR [4] = target: T1, ATR (Homo sapiens, UniProt Q13535); experiment: ATR inhibition in purified PBMCs from human whole blood after DNA damaging agents, immunofluorescence; conditions: UV or 4-nitroquinoline, 10 μM VE-821
T1 construct: PBMCs were purified from fresh whole human blood; endogenous in cells; host or cells: human PBMCs / lymphocytes from fresh whole blood of healthy volunteers
Protocol: Blood from healthy volunteers was collected by venepuncture into EDTA-coated blood collection tubes. 2×10 ml aliquots of blood was diluted 1:1 in PBS and transferred into 50 ml falcon tubes containing 10 mls FICOLL-PAQUE PLUS™ (GE Healthcare). PBMCs were separated using centrifugation through a FICOLL-PAQUE PLUS™ separation gradient. PBMCs from each tube were collected separately and washed twice with 20 mls PBS before being pooled and resuspended in 20 mls culture medium (RPMI-1640 with 10% FBS). 2 mls of PBMC suspension per treatment were transferred into one well of a 6-well culture dish. […] PBMCs were collected using centrifugation, washed in 1 ml PBS then resuspended in 1 ml PBS before being counted using a haemocytometer. 1×10^5 PBMCs were centrifuged onto microscope slides using a CYTOSPIN 2™ centrifuge (Shandon) for 5 minutes at 450 rpm. […] These were detected using the appropriate secondary antibodies diluted in 1% (w/v) BSA in PBS for 1 hour at room temperature protected from the light: anti-rabbit AlexaFluor 488 (Invitrogen, 1:1000) and anti-mouse AlexaFluor 546 (Invitrogen, 1:1000). […] Mean nuclear fluorescence for at least 50 nuclei was measured using ImageJ software (National Institutes of Health, USA) and the data analysed using GraphPad Prism software version 6.0.

[5] = test system: pChk1^Ser345 in MCF7 cells; experiment: UV induced phosphorylation of Chk1 in MCF7 cells over time, immunofluorescence; conditions: 20 J/m^2 UV
Protocol: (§1) Coverslips were sterilised in methanol and placed in the bottom of a 6-well culture dish. 2×10^5 MCF7 cells were seeded into each well of a 6-well culture dish in culture medium (RPMI-1640 with 10% FBS and 1% penicillin and streptomycin) and allowed to adhere for 24 hours. […] Cells were exposed to 20 J/m^2 UV using a […]-2400' (Stratagene). Cells were incubated at 37° C. for 0.5, 1 and 3 hours at which points they were washed with 2 mls PBS and fixed. Cells were fixed using 4% (w/v) paraformaldehyde for 20 minutes at room temperature and permeablised using 0.5% (v/v) Triton-X-100 for 30 minutes at room temperature. […] These were detected using the appropriate secondary antibodies diluted in 1% (w/v) BSA in PBS for 1 hour at room temperature protected from light: anti-rabbit AlexaFluor 546 (Invitrogen, 1:1000) or anti-mouse AlexaFluor 546 (Invitrogen, 1:1000). Coverslips were washed three times for 10 minutes in PBS after incubation with each antibody. DNA was stained using […] with DAPI (Vector Laboratories). Images were captured using a Zeiss LSM 700 confocal microscope (Zeiss) with Zen 2009 software (Zeiss) using and ×40 lens and wavelengths of 405 nm and 561 nm. Mean nuclear fluorescence for at least 50 nuclei was measured using Image) software (National Institutes of Health, USA) and the data analysed using GraphPad Prism software version 6.0.

γH2AX in MCF7 cells [6] = experiment: UV induced phosphorylation of H2AX in MCF7 cells over time, immunofluorescence; conditions: 20 J/m^2 UV
Protocol: as §1

[7] = test system: pChk1^Ser345 in MCF7 cells; experiment: 4-nitroquinoline induced phosphorylation of Chk1 in MCF7 cells over time, immunofluorescence; conditions: Homo sapiens, 2.5 μM 4-nitroquinoline, 10 μM VE-821, for up to 3 hr
Protocol: (§2) Coverslips were sterilised in methanol and placed in the bottom of a 6-well culture dish. 2×10^5 MCF7 cells were seeded into each well of a 6-well culture dish in culture medium (RPMI-1640 with 10% FBS and 1% penicillin and streptomycin) and allowed to adhere for 24 hours. […] Cells were incubated at 37° C. for 0.5, 1 and 3 hours at which points they were washed with 2 mls PBS and fixed. Cells were fixed using 4% (w/v) paraformaldehyde for 20 minutes at room temperature and permeablised using 0.5% (v/v) Triton-X-100 for 30 minutes at room temperature. […] These were detected using the appropriate secondary antibodies diluted in 1% (w/v) BSA in PBS for 1 hour at room temperature protected from light: anti-rabbit AlexaFluor 546 (Invitrogen, 1:1000) or anti-mouse AlexaFluor 546 (Invitrogen, 1:1000). Coverslips were washed three times for 10 minutes in PBS after incubation with each antibody. DNA was stained using […] with DAPI (Vector Laboratories). Images were captured using a Zeiss LSM 700 confocal microscope (Zeiss) with Zen 2009 software (Zeiss) using and ×40 lens and wavelengths of 405 nm and 561 nm. Mean nuclear fluorescence for at least 50 nuclei was measured using Image) software (National Institutes of Health, USA) and the data analysed using GraphPad Prism software version 6.0.

γH2AX in MCF7 cells [8] = experiment: 4-nitroquinoline induced phosphorylation of H2AX in MCF7 cells over time, immunofluorescence; conditions: Homo sapiens, 2.5 μM 4-nitroquinoline
Protocol: as §2

ATR [9] = target: T1, ATR; experiment: ATR inhibition in PBMCs after treatment of human whole blood with UV, immunofluorescence; conditions: 50 J/m^2 UV, 10 μM VE-821
Protocol: Blood from healthy volunteers was collected by venepuncture into EDTA-coated blood collection tubes. […] Following 1 hour incubation at 37° C. and 5% CO2, blood was exposed to 50 J/m^2 UV light. Following 1 hour further incubation the blood mixture was transferred into 15 ml falcon tubes containing 2 mls FICOLL-PAQUE PLUS™ and the PBMCs separated using centrifugation through a FICOLL-PAQUE PLUS™ separation gradient. PBMCs were collected and washed twice using 10 mls PBS and resuspended in 1 ml PBS. PBMCs were counted using a haemocytometer and 1×10^5 PBMCs were centrifuged onto microscope slides using a CYTOSPIN 2™ centrifuge (Shandon) for 5 minutes at 450 rpm. Cells were fixed using 4% (w/v) paraformaldehyde for 20 minutes and permeablised using 0.5% (v/v) Triton-X-100 for 30 minutes. […] These were detected using the appropriate secondary antibodies diluted in 1% (w/v) BSA in PBS for 1 hour at room temperature protected from the light: anti-rabbit AlexaFluor 488 (Invitrogen, 1:1000) and anti-mouse AlexaFluor 546 (Invitrogen, 1:1000). […] Mean nuclear fluorescence for at least 50 nuclei was measured using Image) software (National Institutes of Health, USA) and the data analysed using GraphPad Prism software version 6.0.

ATR [10] = target: T2, ATR (Mus musculus, UniProt Q9JKK8); experiment: ATR inhibition in whole mouse blood ex vivo: 4-nitroquinoline stimulated H2AX phosphorylation in lymphocytes, flow cytometry
T2 construct: Whole human or mouse blood was collected in heparinised tubes; endogenous in cells; host or cells: lymphocytes in whole mouse blood ex vivo
Protocol: The samples were mixed by agitation, incubated for 10 min at 37° C. and stimulated with 62 uM (human) or 124 uM (mouse) 4-nitroquinoline for 1 h at 37° C. The samples were then fixed and red blood cells were lysed using Lyse/Fix Buffer (BD) for 5-10 min and white blood cells were collected by centrifugation according to the manufacturer's instructions. The samples were then transferred into 96 well round bottom plates and permeabilised using Triton X-100 according to method i). H2AX phosphorylation was then analysed by flow cytometry according to method i) with selection of lymphocytes using either standard scatterplot gating or CD3 staining. For specific analysis of H2AX phosphorylation in CD3 positive lymphocytes, cells were stained with 1:2.5 diluted PE-conjugated anti-human CD3 (BD) (human) and 1:50 diluted APC-conjugated anti-mouse CD3 (BD) (mouse) in place of propidium iodide and analyses of P-H2AX were performed on the CD3-positive population.

ATR [11] = target: T1, ATR; experiment: ATR inhibition in PBMCs after treatment of human whole blood with 4-nitroquinoline, immunofluorescence; conditions: 240 μM 4-nitroquinoline 1 and 2 hr, 1 or 10 μM compound
Protocol: Blood from healthy volunteers was collected by venepuncture into EDTA-coated blood collection tubes. […] Following 1 or 2 hours incubation (as indicated) at 37° C. the blood mixture was transferred into 15 ml falcon tubes containing 2 mls FICOLL-PAQUE PLUS™ and the PBMCs separated using centrifugation through a FICOLL-PAQUE PLUS™ separation gradient. PBMCs were collected and washed twice using 10 mls PBS and resuspended in 1 ml PBS. PBMCs were counted using a haemocytometer and 1×10^5 PBMCs were centrifuged onto microscope slides using a CYTOSPIN 2™ centrifuge (Shandon) for 5 minutes at 450 rpm. Cells were fixed using 4% (w/v) paraformaldehyde for 20 minutes and permeablised using 0.5% (v/v) Triton-X-100 for 30 minutes. […] These were detected using the appropriate secondary antibodies diluted in 1% (w/v) BSA in PBS: anti-rabbit AlexaFluor 546 (Invitrogen, 1:1000) and anti-mouse AlexaFluor 546 (Invitrogen, 1:1000). […] Mean nuclear fluorescence for at least 50 nuclei was measured using Image) software (National Institutes of Health, USA) and the data analysed using GraphPad Prism software version 6.0.

T1 sequence (Q13535 whole entry): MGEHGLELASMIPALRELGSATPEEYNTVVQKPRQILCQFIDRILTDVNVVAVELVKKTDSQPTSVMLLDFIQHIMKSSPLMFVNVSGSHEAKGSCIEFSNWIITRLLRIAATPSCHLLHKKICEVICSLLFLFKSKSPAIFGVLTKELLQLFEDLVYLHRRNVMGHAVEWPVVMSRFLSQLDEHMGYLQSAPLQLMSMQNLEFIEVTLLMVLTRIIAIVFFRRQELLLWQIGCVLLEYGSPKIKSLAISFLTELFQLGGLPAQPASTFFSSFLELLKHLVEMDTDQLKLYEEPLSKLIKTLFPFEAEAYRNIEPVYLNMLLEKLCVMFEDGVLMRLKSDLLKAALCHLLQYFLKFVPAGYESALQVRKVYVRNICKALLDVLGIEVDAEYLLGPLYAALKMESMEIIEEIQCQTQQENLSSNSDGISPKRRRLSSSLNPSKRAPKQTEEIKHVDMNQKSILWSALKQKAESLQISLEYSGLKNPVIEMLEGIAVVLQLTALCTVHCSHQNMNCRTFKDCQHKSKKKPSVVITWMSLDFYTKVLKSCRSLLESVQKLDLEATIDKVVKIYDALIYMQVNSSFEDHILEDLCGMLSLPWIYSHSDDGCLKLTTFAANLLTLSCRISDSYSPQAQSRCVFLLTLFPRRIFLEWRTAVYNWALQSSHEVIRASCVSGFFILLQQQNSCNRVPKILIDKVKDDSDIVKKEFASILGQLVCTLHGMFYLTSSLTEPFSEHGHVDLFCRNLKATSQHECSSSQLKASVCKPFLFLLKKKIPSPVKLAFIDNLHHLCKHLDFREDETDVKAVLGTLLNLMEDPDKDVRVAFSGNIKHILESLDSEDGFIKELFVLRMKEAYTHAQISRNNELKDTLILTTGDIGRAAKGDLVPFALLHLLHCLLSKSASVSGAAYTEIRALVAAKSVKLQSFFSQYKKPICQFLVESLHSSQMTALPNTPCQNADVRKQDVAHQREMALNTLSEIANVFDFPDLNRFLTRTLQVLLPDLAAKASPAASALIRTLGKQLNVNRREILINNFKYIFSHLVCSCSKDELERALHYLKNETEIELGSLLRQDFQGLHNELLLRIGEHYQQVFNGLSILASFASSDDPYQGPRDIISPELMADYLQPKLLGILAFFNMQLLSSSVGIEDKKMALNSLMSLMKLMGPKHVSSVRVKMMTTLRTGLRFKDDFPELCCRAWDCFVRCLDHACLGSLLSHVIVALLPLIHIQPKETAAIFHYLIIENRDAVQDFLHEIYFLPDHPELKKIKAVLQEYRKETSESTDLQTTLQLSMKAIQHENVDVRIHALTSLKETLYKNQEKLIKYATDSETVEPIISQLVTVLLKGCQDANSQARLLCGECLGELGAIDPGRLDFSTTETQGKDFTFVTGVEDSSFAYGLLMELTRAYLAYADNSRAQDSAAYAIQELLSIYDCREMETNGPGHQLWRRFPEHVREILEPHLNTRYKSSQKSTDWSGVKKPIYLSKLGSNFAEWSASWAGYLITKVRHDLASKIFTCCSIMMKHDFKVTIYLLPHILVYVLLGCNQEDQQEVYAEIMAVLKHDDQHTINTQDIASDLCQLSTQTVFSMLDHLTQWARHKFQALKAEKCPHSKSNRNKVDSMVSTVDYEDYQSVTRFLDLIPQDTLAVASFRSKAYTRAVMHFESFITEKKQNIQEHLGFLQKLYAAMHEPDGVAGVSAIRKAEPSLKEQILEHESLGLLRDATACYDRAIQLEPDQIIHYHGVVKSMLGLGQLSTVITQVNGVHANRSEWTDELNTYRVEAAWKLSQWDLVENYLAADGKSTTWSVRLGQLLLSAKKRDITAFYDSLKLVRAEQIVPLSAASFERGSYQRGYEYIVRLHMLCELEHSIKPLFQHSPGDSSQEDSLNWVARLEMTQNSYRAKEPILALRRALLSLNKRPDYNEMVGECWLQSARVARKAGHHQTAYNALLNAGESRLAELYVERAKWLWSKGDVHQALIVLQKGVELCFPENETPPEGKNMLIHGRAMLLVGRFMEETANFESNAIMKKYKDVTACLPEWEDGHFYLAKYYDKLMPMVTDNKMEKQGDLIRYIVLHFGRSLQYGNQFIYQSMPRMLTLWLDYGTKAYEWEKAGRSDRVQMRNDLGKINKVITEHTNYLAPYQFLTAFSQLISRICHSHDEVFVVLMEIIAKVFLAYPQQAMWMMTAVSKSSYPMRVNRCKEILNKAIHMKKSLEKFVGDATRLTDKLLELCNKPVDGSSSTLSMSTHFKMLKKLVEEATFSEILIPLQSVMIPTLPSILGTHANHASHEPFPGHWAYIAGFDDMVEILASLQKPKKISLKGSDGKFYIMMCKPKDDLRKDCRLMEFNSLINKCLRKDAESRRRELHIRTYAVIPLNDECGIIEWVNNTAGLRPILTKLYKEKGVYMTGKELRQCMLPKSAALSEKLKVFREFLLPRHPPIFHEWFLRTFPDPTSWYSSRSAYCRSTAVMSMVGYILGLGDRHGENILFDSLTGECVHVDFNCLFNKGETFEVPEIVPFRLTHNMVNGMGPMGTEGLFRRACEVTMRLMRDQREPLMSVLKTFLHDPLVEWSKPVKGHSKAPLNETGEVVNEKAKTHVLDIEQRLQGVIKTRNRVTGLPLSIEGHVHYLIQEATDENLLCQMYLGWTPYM
T1 sequence (Q8WXE1 whole entry partner): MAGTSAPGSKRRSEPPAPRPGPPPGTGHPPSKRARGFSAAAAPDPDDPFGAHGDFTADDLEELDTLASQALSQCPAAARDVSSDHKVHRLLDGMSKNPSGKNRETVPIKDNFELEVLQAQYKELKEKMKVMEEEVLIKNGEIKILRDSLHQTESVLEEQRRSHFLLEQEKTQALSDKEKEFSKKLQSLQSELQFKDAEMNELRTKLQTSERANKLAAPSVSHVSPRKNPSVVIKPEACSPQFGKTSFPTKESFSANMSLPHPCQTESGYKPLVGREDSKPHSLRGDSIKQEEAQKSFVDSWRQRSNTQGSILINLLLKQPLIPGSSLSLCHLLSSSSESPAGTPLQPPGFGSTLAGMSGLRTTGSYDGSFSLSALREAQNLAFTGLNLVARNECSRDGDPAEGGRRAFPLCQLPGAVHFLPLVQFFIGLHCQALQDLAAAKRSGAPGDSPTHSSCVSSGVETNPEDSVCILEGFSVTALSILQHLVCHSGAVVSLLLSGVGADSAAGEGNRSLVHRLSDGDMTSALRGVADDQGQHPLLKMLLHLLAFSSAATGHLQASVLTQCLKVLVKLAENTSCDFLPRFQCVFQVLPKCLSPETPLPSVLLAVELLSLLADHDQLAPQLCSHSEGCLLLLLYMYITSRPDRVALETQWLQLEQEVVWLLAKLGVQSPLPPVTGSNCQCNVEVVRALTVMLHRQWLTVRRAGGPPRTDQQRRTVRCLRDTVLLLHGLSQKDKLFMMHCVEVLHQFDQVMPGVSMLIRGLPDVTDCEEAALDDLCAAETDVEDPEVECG

SMILES: O=[N+]([O-])c1ccnc2ccccc12 [4-nitroquinoline]
phosphorylation of pChk1^Ser345 and γH2AX (biomarker induction) [1]: improved phosphorylation
concentration required for pChk1^Ser345 and γH2AX induction compared with whole blood [2]: lower concentrations were required
concentration adequate to induce ATR-dependent phosphorylation events [3]: ≤ 5 µM

SMILES: CS(=O)(=O)c1ccc(-c2cnc(N)c(C(=O)Nc3ccccc3)n2)cc1 [VE-821]
level of pChk1^Ser345 signal after co-administering compound (ATR [4]): reduction
level of γH2AX signal after co-administering compound (ATR [4]): reduction
inhibition (of UV-induced Chk1 phosphorylation) ([5]; at 0.5 hr): 70%
inhibition (of UV-induced Chk1 phosphorylation) ([5]; at 3 hr): 55%
inhibition of γH2AX (γH2AX in MCF7 cells [6]; at 0.5 hr): 80%
inhibition of γH2AX (γH2AX in MCF7 cells [6]; at 3 hr): < 20%
inhibition at 10 µM [7]: > 70%
inhibition at 10 µM (γH2AX in MCF7 cells [8]; 10 μM VE-821, at 1 hr): 70%
inhibition at 10 µM (γH2AX in MCF7 cells [8]; 10 μM VE-821, at 3 hr): 40%
inhibition of UV-induced pChk1^Ser345 (ATR [9]): significant inhibition
inhibition of UV-induced γH2AX (ATR [9]): significant inhibition

IC50 (ATR [10]): 1000 nM
SMILES: CNCc1ccc(-c2cc(-c3nc(-c4ccc(S(=O)(=O)C(C)C)cc4)cnc3N)on2)cc1 [VE-822]
inhibition of 4-nitroquinoline-induced increases in γH2AX (ATR [11]): inhibited by VE-822 in a concentration-dependent manner
